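Step 1: Grow cells in 96-well plates. Step 2: Expose to compound for 48 hours at 5 concentrations. Step 3: Interpolate endpoints linearly; if unreached, use highest concentration. GI50 marks 50% less growth.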 The source made the active and inactive calls. Rule as the data show it: active = GI50 up to about 1.1 µM and inactive = higher.

The text below walks through data of ChEMBL document CHEMBL1201862, “PubChem BioAssay data set” (2004).

Test systems include NCI-H23; A498; A549; HT-29; SK-MEL-28; NCI-H226; IGROV-1; NCI-H522; 786-0; CAKI-1; HCT-15; MOLT-4; NCI-H460; NCI/ADR-RES; CCRF-CEM; M14; BT-549; UACC-62; SNB-75; RPMI-8226.
What all share (experiment): NCI anticancer screen, dose series, 48 h

`CNC(=O)OC(C)CN1c2ccccc2Sc2ccccc21` (centres undefined): the GI50 is > 100 µM (inactive) with NCI-H23; > 100 µM (inactive) in the test on A498; 86.3 µM (inactive) in the test with A549; 80 µM (inactive) with HT-29; > 100 µM (inactive) in the test on SK-MEL-28; > 100 µM (inactive) in the test on NCI-H226. The GI50 in the test on IGROV-1 is 59.3 µM (inactive); in the test on NCI-H522, > 100 µM (inactive); in the test with 786-0, 64.6 µM (inactive); in the test on CAKI-1, > 100 µM (inactive); with HCT-15 it was 32.1 µM; in the test with MOLT-4, 19.1 µM (inactive). For the same compound, the GI50 is 57.3 µM (inactive) in the test on NCI-H460; 76 µM (inactive) in the test with NCI/ADR-RES; > 100 µM (inactive) in the test on CCRF-CEM; 64.9 µM (inactive) in the test on M14; > 100 µM (inactive) with BT-549; > 100 µM (inactive) in the test with UACC-62.

Regarding `CC1(C)C2CC(O)C1(C)CC2=O` (centres undefined), the GI50 with NCI-H23 is > 100 µM (inactive); in the test on SNB-75, > 100 µM (inactive); in the test on RPMI-8226, > 100 µM (inactive); in the test on A549, > 100 µM (inactive); in the test with HT-29, > 100 µM (inactive); with SK-MEL-28, 3.21 µM (inactive). For the same compound, the GI50 with NCI-H226 is > 100 µM (inactive); in the test on IGROV-1 it was > 100 µM (inactive); in the test with NCI-H522, > 100 µM (inactive); in the test with 786-0 it was > 100 µM (inactive); in the test with HCT-15, above 100 µM; with MOLT-4, > 100 µM (inactive). Also, the GI50 in the test on NCI-H460, in the test with NCI/ADR-RES, with CCRF-CEM, with M14, in the test on BT-549 and in the test on UACC-62 was > 100 µM (inactive) in each case.

For `CCc1n[nH]c(=O)n1/N=C/c1ccc(C)cc1`, the GI50 in the test on NCI-H23 is > 100 µM (inactive); with A498, 79.6 µM (inactive); in the test on RPMI-8226, 72.1 µM (inactive); in the test on A549 it was > 100 µM (inactive); in the test on HT-29, 54.3 µM (inactive); with SK-MEL-28 it was > 100 µM (inactive). Moreover, the GI50 with NCI-H226 was 70.8 µM (inactive); in the test with IGROV-1 it was 91 µM (inactive); with NCI-H522, > 100 µM (inactive); with 786-0 it was > 100 µM (inactive); in the test on CAKI-1, > 100 µM (inactive); with HCT-15 it was above 100 µM. Further, the GI50 with MOLT-4 is 5.2 µM (inactive); with NCI-H460, > 100 µM (inactive); with NCI/ADR-RES, > 100 µM (inactive); with CCRF-CEM it was > 100 µM (inactive); in the test on BT-549 it was > 100 µM (inactive); in the test with UACC-62, 60.7 µM (inactive).

In the case of `COC(=O)/C=C/[C@@H]1[C@H](C)N1S(=O)(=O)c1ccc(C)cc1` (some centres undefined), the GI50 in the test on NCI-H23, with A498, in the test on RPMI-8226, with A549, in the test with HT-29 and with SK-MEL-28 was > 100 µM (inactive) in each case. Besides, the GI50 in the test with NCI-H226 was > 100 µM (inactive); in the test with IGROV-1, > 100 µM (inactive); in the test with NCI-H522 it was > 100 µM (inactive); with 786-0 it was 61.4 µM (inactive); with CAKI-1, > 100 µM (inactive); in the test on HCT-15 it was above 100 µM. Besides, the GI50 with MOLT-4, in the test on NCI-H460, in the test on NCI/ADR-RES, in the test with CCRF-CEM, in the test with M14 and with BT-549 was > 100 µM (inactive) throughout. In addition, in the test with UACC-62, the GI50 was > 100 µM (inactive).

With `O=[N+]([O-])c1ccc([I+]c2ccccc2)cc1`, the GI50 is 2.33 µM (inactive) in the test on NCI-H23; 2.05 µM (inactive) in the test with A498; 11.2 µM (inactive) with RPMI-8226; 6.64 µM (inactive) in the test on A549; 2.97 µM (inactive) in the test on HT-29; 3.6 µM (inactive) in the test with SK-MEL-28. Besides, the GI50 with NCI-H226 is 9.08 µM (inactive); in the test on IGROV-1 it was 16.4 µM (inactive); with NCI-H522, 1.92 µM (inactive); in the test with 786-0, 4.26 µM (inactive); in the test on CAKI-1, 3.95 µM (inactive); in the test on HCT-15 it was 7.35 µM. The GI50 in the test with MOLT-4 is 2.25 µM (inactive); with NCI-H460, 5.52 µM (inactive); in the test with NCI/ADR-RES, 8.3 µM (inactive); with CCRF-CEM, 2.49 µM (inactive); with M14, 4.29 µM (inactive); in the test on BT-549, 2.8 µM (inactive). Further, the GI50 in the test with UACC-62 was 2.96 µM (inactive).

For `COc1cccc(CC2C(=O)N/C(=N\C(C)=O)N2C)c1OC(C)=O` (centres undefined), the GI50 with NCI-H23 was > 100 µM (inactive); in the test with SNB-75, > 100 µM (inactive); in the test on A549 it was > 100 µM (inactive); in the test on HT-29 it was > 100 µM (inactive); in the test with SK-MEL-28 it was 39 µM (inactive); in the test on NCI-H226, > 100 µM (inactive). For the same compound, the GI50 in the test on IGROV-1 is > 100 µM (inactive); in the test on NCI-H522, > 100 µM (inactive); with 786-0, > 100 µM (inactive); in the test on CAKI-1, > 100 µM (inactive); in the test with HCT-15, above 100 µM; in the test with MOLT-4 it was > 100 µM (inactive). In addition, the GI50 with NCI-H460, in the test on NCI/ADR-RES, with CCRF-CEM, in the test on M14, in the test on BT-549 and in the test with UACC-62 was > 100 µM (inactive) in each case.

As for `CCN(C(=O)N[C@H](C(=O)N[C@@H](CSC)C(=O)N[C@@H](C)C(=O)OC)C(C)C)c1ccccc1`, the GI50 with NCI-H23 was 17.8 µM (inactive); with SNB-75, 12.4 µM (inactive); in the test with A549, 23.6 µM (inactive); with HT-29 it was 13.2 µM (inactive); in the test with SK-MEL-28 it was 15.3 µM (inactive); in the test with NCI-H226 it was 16.3 µM (inactive). The GI50 is 10.4 µM (inactive) in the test on IGROV-1; 10.2 µM (inactive) with NCI-H522; 17.2 µM (inactive) with 786-0; 20 µM (inactive) in the test with CAKI-1; 17.8 µM in the test with HCT-15; 8.3 µM (inactive) with MOLT-4. In addition, the GI50 in the test with NCI-H460 was 15.8 µM (inactive); in the test with NCI/ADR-RES it was > 100 µM (inactive); in the test on CCRF-CEM it was 2.94 µM (inactive); with M14, 14.2 µM (inactive); in the test on BT-549, 18.1 µM (inactive); in the test on UACC-62 it was 13.8 µM (inactive).

On to `OC(COC(c1ccccc1)(c1ccccc1)c1ccccc1)C(O)CC1SCCS1` (centres undefined), for which the GI50 is 17.9 µM (inactive) in the test with NCI-H23; 13.9 µM (inactive) with A498; 5.22 µM (inactive) in the test with RPMI-8226; 12.4 µM (inactive) in the test on HT-29; 21.5 µM (inactive) in the test with SK-MEL-28; 14.9 µM (inactive) in the test on NCI-H226. Also, the GI50 in the test on IGROV-1 was 10.2 µM (inactive); with 786-0, 17.6 µM (inactive); with CAKI-1, 21.3 µM (inactive); in the test on HCT-15, 21.8 µM; in the test on MOLT-4, 8.91 µM (inactive); in the test with NCI/ADR-RES, 16.3 µM (inactive). In addition, the GI50 in the test with CCRF-CEM was 21.3 µM (inactive); with M14, 29.6 µM (inactive); in the test on BT-549, 20 µM (inactive); with UACC-62 it was 17.1 µM (inactive).

With `COc1ccc2c(c1)CC[C@@H]1C2CC[C@]2(C)OC(=O)CCC12` (some centres undefined), the GI50 was 12.6 µM (inactive) in the test on NCI-H23; 38.6 µM (inactive) in the test with A498; 5.77 µM (inactive) in the test on RPMI-8226; 27.9 µM (inactive) with A549; 19.8 µM (inactive) with HT-29; 16.8 µM (inactive) in the test with SK-MEL-28. Besides, the GI50 is 11.7 µM (inactive) with NCI-H226; 23.6 µM (inactive) with IGROV-1; 6.07 µM (inactive) with NCI-H522; 5.85 µM (inactive) with 786-0; 31.6 µM (inactive) with CAKI-1; 17.5 µM with HCT-15. For the same compound, the GI50 in the test with MOLT-4 is > 100 µM (inactive); with NCI-H460, 22.7 µM (inactive); with NCI/ADR-RES, 14.9 µM (inactive); in the test with CCRF-CEM, 3.6 µM (inactive); in the test with M14, 13.2 µM (inactive); in the test on BT-549, 11.4 µM (inactive). The GI50 in the test on UACC-62 is 20.2 µM (inactive).

With `COc1cc(C2SCC(=O)N2c2ccc(-n3c(-c4ccccc4)nc4ccccc4c3=O)cc2)cc(OC)c1OC` (centres undefined), the GI50 in the test with NCI-H23, in the test with A498, in the test with RPMI-8226, in the test with A549, with HT-29 and in the test on SK-MEL-28 was > 100 µM (inactive) in each case. The GI50 in the test with IGROV-1 is > 100 µM (inactive); in the test on NCI-H522, > 100 µM (inactive); in the test on 786-0 it was > 100 µM (inactive); in the test with CAKI-1 it was > 100 µM (inactive); with HCT-15 it was 71.1 µM; with MOLT-4, 20.1 µM (inactive). In addition, the GI50 in the test on NCI-H460 was > 100 µM (inactive); in the test with NCI/ADR-RES it was > 100 µM (inactive); in the test on CCRF-CEM, 69.7 µM (inactive); with BT-549 it was > 100 µM (inactive); in the test with UACC-62, 41.2 µM (inactive).

Turning to `CN(C)/N=N/c1[nH]cnc1C(N)=O` [DACARBAZINE], the GI50 was 93.8 µM (inactive) in the test with NCI-H23; 35.7 µM (inactive) with SNB-75; 19.1 µM (inactive) in the test on RPMI-8226; 96.2 µM (inactive) in the test on A549; 87.7 µM (inactive) in the test on HT-29; 86.5 µM (inactive) in the test on SK-MEL-28. For the same compound, the GI50 in the test with NCI-H226 was 75.2 µM (inactive); in the test with IGROV-1 it was 68.5 µM (inactive); with NCI-H522 it was 67.1 µM (inactive); in the test on 786-0, 87.9 µM (inactive); in the test with CAKI-1, 19 µM (inactive); in the test on HCT-15 it was 94.6 µM. For the same compound, the GI50 was 20.7 µM (inactive) with MOLT-4; 49.5 µM (inactive) in the test with NCI-H460; 66.4 µM (inactive) in the test on NCI/ADR-RES; 11.6 µM (inactive) in the test with CCRF-CEM; 27.2 µM (inactive) in the test with M14; 51.3 µM (inactive) in the test with BT-549. For the same compound, the GI50 in the test on UACC-62 was 35.3 µM (inactive).
